The subject of data set [1] is ovary cancer and cancers of thymus and others. The following applies: cited from earlier work.
Data set [2] is described as follows: solubility in physiological saline. The data set is classed as physicochemical. How it is done: Solubility: 5 mg/ml (physiological saline)
In the tables, solubility means a solubility in physiological saline.

For the next data set, the system named is BDF1 mice. The experiment in a line: toxicity, intraperitoneal administration to BDF1 mice, 20 days observation. Type of data set: in vivo, mouse. As to conditions: 25 mg/kg, 4 times once a day, observed for 20 days. The text has this: Further, the taxol derivative of the present invention or a pharmaceutically acceptable salt thereof has low toxicity and high water solubility.

The subject of another data set is various kinds of cancers. As to conditions: cited from earlier work.
The conditions of data set [3]: cited from earlier work.
Where [4] appears, read: methanesulfonate, medium not printed at the place.

Converted amounts (≈) assume the structure as drawn.

As to `CC(=O)O[C@@]12CO[C@@H]1C[C@H](O)[C@@]1(C)C(=O)[C@H](O)C3=C(C)[C@@H](OC(=O)[C@H](O)[C@@H](NC(=O)OC(C)(C)C)c4ccccc4)C[C@@](O)([C@@H](OC(=O)c4ccccc4)[C@H]21)C3(C)C` [4α-acetoxy-2α-benzoyloxy-5β,20-epoxy-1β,7β,10β-trihydroxy-13α-[(2R,3S)-3-phenyl-3-(t-butoxycarbonylamino)-2-hydroxypropionyloxy]-tax-11-en-9-one], the antitumor activities result in data set [1] was “excellent antitumor activities”. One may read the solubility as the concentration that dissolves in the medium under given conditions. `CCOC(=O)[C@@H](N)CC(=O)OCC(=O)O[C@@H](C(=O)O[C@H]1C[C@@]2(O)[C@@H](OC(=O)c3ccccc3)[C@@H]3[C@]4(OC(C)=O)CO[C@@H]4C[C@H](O)[C@@]3(C)C(=O)[C@H](O)C(=C1C)C2(C)C)[C@@H](NC(=O)OC(C)(C)C)c1ccccc1` [Example 32, 4α-acetoxy-13α-{(2R,3S)-3-tert-butoxycarbonylamino-2-[((3S)-3-amino-3-ethoxycarbonylpropionyloxy)acetoxy]-3-phenylpropionyloxy}-2α-benzoyloxy-5β,20-epoxy-1β,7β,10β-trihydroxytax-11-en-9-one.methanesulfonate]: the solubility in data set [2] (setting [4]) and in data set [2] (physiological saline) was 5000 µg/mL throughout. Besides, in the data set on BDF1 mice, the death result is reported as “no case of death was observed”. As for `CC(=O)O[C@@]12CO[C@@H]1C[C@H](O)[C@@]1(C)C(=O)[C@H](O)C3=C(C)[C@@H](OC(=O)[C@H](OC(=O)COC(=O)[C@@H]4CCCN4)[C@@H](NC(=O)OC(C)(C)C)c4ccccc4)C[C@@](O)([C@@H](OC(=O)c4ccccc4)[C@H]21)C3(C)C` [Example 33], the solubility in data set [2] (physiological saline) is 1400 µg/mL (≈ 1450 µM). As for `CC(=O)O[C@@]12CO[C@@H]1C[C@H](O)[C@@]1(C)C(=O)[C@H](O)C3=C(C)[C@@H](OC(=O)[C@H](OC(=O)COC(=O)CNC(=O)CN)[C@@H](NC(=O)OC(C)(C)C)c4ccccc4)C[C@@](O)([C@@H](OC(=O)c4ccccc4)[C@H]21)C3(C)C` [Example 34], the solubility in data set [2] (physiological saline) was 10000 µg/mL (≈ 10200 µM). On to `COCCOC(=O)[C@@H](N)CC(=O)OCC(=O)O[C@@H](C(=O)O[C@H]1C[C@@]2(O)[C@@H](OC(=O)c3ccccc3)[C@@H]3[C@]4(OC(C)=O)CO[C@@H]4C[C@H](O)[C@@]3(C)C(=O)[C@H](O)C(=C1C)C2(C)C)[C@@H](NC(=O)OC(C)(C)C)c1ccccc1` [Example 35, 4α-acetoxy-13α-{(2R,3S)-3-tert-butoxycarbonylamino-2-[((3S)-3-amino-3-(2-methoxyethoxycarbonyl)propionyloxy)acetoxy]-3-phenylpropionyloxy}-2α-benzoyloxy-5β,20-epoxy-1β,7β,10β-trihydroxytax-11-en-9-one.methanesulfonate], for which the solubility in data set [2] (setting [4]) and in data set [2] (physiological saline) was 10000 µg/mL each time. Moreover, the death entry in the data set on BDF1 mice is reported as “no case of death was observed”. `CC(=O)O[C@@]12CO[C@@H]1C[C@H](O)[C@@]1(C)C(=O)[C@H](O)C3=C(C)[C@@H](OC(=O)[C@H](OC(=O)COC(=O)[C@H](C)N)[C@@H](NC(=O)OC(C)(C)C)c4ccccc4)C[C@@](O)([C@@H](OC(=O)c4ccccc4)[C@H]21)C3(C)C` [Example 36] gave a solubility in data set [2] (physiological saline) of 2000 µg/mL (≈ 2130 µM).

In data set [2] (physiological saline), `CCOC(=O)[C@@H](N)CC(=O)OCCCCC(=O)O[C@@H](C(=O)O[C@H]1C[C@@]2(O)[C@@H](OC(=O)c3ccccc3)[C@@H]3[C@]4(OC(C)=O)CO[C@@H]4C[C@H](O)[C@@]3(C)C(=O)[C@H](O)C(=C1C)C2(C)C)[C@@H](NC(=O)OC(C)(C)C)c1ccccc1` [Example 37] displayed a solubility of 1000 µg/mL (≈ 951 µM). This solubility is about 2-fold lower than that of the compound before. Take `CC(=O)O[C@@]12CO[C@@H]1C[C@H](O)[C@@]1(C)C(=O)[C@H](O)C3=C(C)[C@@H](OC(=O)[C@H](OC(=O)COC(=O)CCN)[C@@H](NC(=O)c4ccccc4)c4ccccc4)C[C@@](O)([C@@H](OC(=O)c4ccccc4)[C@H]21)C3(C)C` [Example 38]: the concentration in solution in data set [2] (physiological saline) (solubility) was 1000 µg/mL (≈ 1060 µM).

For `CCOC(=O)[C@@H](N)CC(=O)OCC(=O)O[C@@H](C(=O)O[C@H]1C[C@@]2(O)[C@@H](OC(=O)c3ccccc3)[C@@H]3[C@]4(OC(C)=O)CO[C@@H]4C[C@H](O)[C@@]3(C)C(=O)[C@H](O)C(=C1C)C2(C)C)[C@@H](NC(=O)c1ccco1)c1ccccc1` [Example 40], the solubility in data set [2] (physiological saline) turned out to be 6000 µg/mL (≈ 5980 µM).

In data set [2] (physiological saline), `CCOC(=O)[C@@H](N)CC(=O)OCC(=O)O[C@@H](C(=O)O[C@H]1C[C@@]2(O)[C@@H](OC(=O)c3ccccc3)[C@@H]3[C@]4(OC(C)=O)CO[C@@H]4C[C@H](O)[C@@]3(C)C(=O)[C@H](O)C(=C1C)C2(C)C)[C@@H](NC(=O)c1cccs1)c1ccccc1` [Example 41] came in with a solubility of 700 µg/mL (≈ 687 µM).

`CCOC(=O)[C@@H](N)CC(=O)OCC(=O)O[C@@H](C(=O)O[C@H]1C[C@@]2(O)[C@@H](OC(=O)c3ccccc3)[C@@H]3[C@]4(OC(C)=O)CO[C@@H]4C[C@H](O)[C@@]3(C)C(=O)[C@H](O)C(=C1C)C2(C)C)[C@@H](NC(=O)CCCCCl)c1ccccc1` [Example 42] gave a solubility in data set [2] (physiological saline) of 5000 µg/mL (≈ 4870 µM). Regarding `CCOC(=O)[C@@H](N)CC(=O)OCC(=O)O[C@@H](C(=O)O[C@H]1C[C@@]2(O)[C@@H](OC(=O)c3ccccc3)[C@@H]3[C@]4(OC(C)=O)CO[C@@H]4C[C@H](O)[C@@]3(C)C(=O)[C@H](O)C(=C1C)C2(C)C)[C@@H](NC(=O)c1cc(OC)ccc1OC)c1ccccc1` [Example 43], the solubility in data set [2] (physiological saline) is 500 µg/mL (≈ 466 µM). Compared with the last compound, the solubility is about 10-fold lower. Compound `CCOC(=O)N[C@@H](c1ccccc1)[C@@H](OC(=O)COC(=O)C[C@H](N)C(=O)OCC)C(=O)O[C@H]1C[C@@]2(O)[C@@H](OC(=O)c3ccccc3)[C@@H]3[C@]4(OC(C)=O)CO[C@@H]4C[C@H](O)[C@@]3(C)C(=O)[C@H](O)C(=C1C)C2(C)C` [Example 44] returned a solubility in data set [2] (physiological saline) of 4000 µg/mL (≈ 4080 µM). The same measure, in the same setting: then `CCOC(=O)[C@@H](N)CC(=O)OCC(=O)O[C@@H](C(=O)O[C@H]1C[C@@]2(O)[C@@H](OC(=O)c3ccccc3)[C@@H]3[C@]4(OC(C)=O)CO[C@@H]4C[C@H](O)[C@@]3(C)C(=O)[C@H](O)C(=C1C)C2(C)C)[C@@H](NC(=O)OCC1C(C)(C)C1(F)F)c1ccccc1` (some centres unmarked) [Example 45], with 600 µg/mL (≈ 560 µM).

In data set [2] (physiological saline), `CCOC(=O)[C@@H](N)CC(=O)OCC(=O)O[C@@H](C(=O)O[C@H]1C[C@@]2(O)[C@@H](OC(=O)c3ccccc3)[C@@H]3[C@]4(OC(C)=O)CO[C@@H]4C[C@H](O)[C@@]3(C)C(=O)[C@H](O)C(=C1C)C2(C)C)[C@@H](NC(=O)OCC(F)(F)F)c1ccccc1` [Example 46] yielded a solubility of 5000 µg/mL (≈ 4830 µM).

Take `CCOC(=O)[C@@H](N)CC(=O)OCC(=O)O[C@@H](C(=O)O[C@H]1C[C@@]2(O)[C@@H](OC(=O)c3ccccc3)[C@@H]3[C@]4(OC(C)=O)CO[C@@H]4C[C@H](O)[C@@]3(C)C(=O)[C@H](O)C(=C1C)C2(C)C)[C@@H](NC(=O)OCCOC)c1ccccc1` [Example 47]: in data set [2] (physiological saline), the solubility was more than 10000 µg/mL. With `CCOC(=O)[C@@H](N)CC(=O)OCC(=O)O[C@@H](C(=O)O[C@H]1C[C@@]2(O)[C@@H](OC(=O)c3ccccc3)[C@@H]3[C@]4(OC(C)=O)CO[C@@H]4C[C@H](O)[C@@]3(C)C(=O)[C@H](O)C(=C1C)C2(C)C)[C@@H](NC(=O)OCC1CCC1)c1ccccc1` [Example 48], the concentration in solution in data set [2] (physiological saline) (solubility) came to 1000 µg/mL (≈ 979 µM). In turn, `CCOC(=O)[C@@H](N)CC(=O)OCC(=O)O[C@@H](C(=O)O[C@H]1C[C@@]2(O)[C@@H](OC(=O)c3ccccc3)[C@@H]3[C@]4(OC(C)=O)CO[C@@H]4C[C@H](O)[C@@]3(C)C(=O)[C@H](O)C(=C1C)C2(C)C)[C@@H](NC(=O)OCC1CC1)c1ccccc1` [Example 49] yielded a solubility in data set [2] (physiological saline) of 5000 µg/mL (≈ 4960 µM).

`CCOC(=O)[C@@H](N)CC(=O)OCC(=O)O[C@@H](C(=O)O[C@H]1C[C@@]2(O)[C@@H](OC(=O)c3ccccc3)[C@@H]3[C@]4(OC(C)=O)CO[C@@H]4C[C@H](O)[C@@]3(C)C(=O)[C@H](O)C(=C1C)C2(C)C)[C@@H](NC(=O)OC(C)(C)C)c1ccc(F)cc1F` [Example 52] showed a solubility in data set [2] (physiological saline) of 1000 µg/mL (≈ 957 µM). Compared with the last compound, the solubility is about 5-fold lower. `CCOC(=O)[C@@H](N)CC(=O)OCC(=O)O[C@@H](C(=O)O[C@H]1C[C@@]2(O)[C@@H](OC(=O)c3ccccc3)[C@@H]3[C@]4(OC(C)=O)CO[C@@H]4C[C@H](O)[C@@]3(C)C(=O)[C@H](O)C(=C1C)C2(C)C)[C@@H](NC(=O)OC(C)(C)C)c1ccc(OC)cc1` [Example 56] displayed a solubility in data set [2] (physiological saline) of 15000 µg/mL (≈ 14400 µM). In the case of `COCCOC(=O)[C@@H](N)CC(=O)OCC(=O)O[C@@H](C(=O)O[C@H]1C[C@@]2(O)[C@@H](OC(=O)c3ccccc3)[C@@H]3[C@]4(OC(C)=O)CO[C@@H]4C[C@H](O)[C@@]3(C)C(=O)[C@H](O)C(=C1C)C2(C)C)[C@@H](NC(=O)OC(C)(C)C)c1ccc(F)cc1F` [Example 57], the concentration in solution in data set [2] (physiological saline) (solubility) was 5000 µg/mL (≈ 4650 µM). Compared with the last compound, the solubility is about 3-fold lower. In the case of `CCOC(=O)[C@@H](N)CC(=O)OCC(=O)O[C@@H](C(=O)O[C@H]1C[C@@]2(O)[C@@H](OC(=O)c3ccccc3)[C@@H]3[C@]4(OC(C)=O)CO[C@@H]4C[C@H](O)[C@@]3(C)C(=O)[C@H](OC(C)=O)C(=C1C)C2(C)C)[C@@H](NC(=O)c1ccccc1)c1ccccc1` [Example 59, 4α,10β-diacetoxy-13α-{(2R,3S)-3-benzoylamino-2-[((3S)-3-amino-3-ethoxycarbonylpropionyloxy)acetoxy]-3-phenylpropionyloxy}-2α-benzoyloxy-5β,20-epoxy-1β,7β-dihydroxytax-l 1-en-9-one.methanesulfonate], in data set [2] (physiological saline), the solubility is 300 µg/mL. For the compound `CC(=O)O[C@H]1C(=O)[C@@]2(C)[C@H]([C@H](OC(=O)c3ccccc3)[C@]3(O)C[C@H](OC(=O)[C@H](O)[C@@H](NC(=O)c4ccccc4)c4ccccc4)C(C)=C1C3(C)C)[C@]1(OC(C)=O)CO[C@@H]1C[C@@H]2O` [taxol, 4α,10β-diacetoxy-2α-benzoyloxy-5β,20-epoxy-1β,7β-dihydroxy-13α-[(2R,3S)-3-phenyl-3-benzoylamino-2-hydroxypropionyloxy]-tax-11-en-9-one], the anti-tumor activity result in the data set with various kinds of cancers is “excellent anti-tumor activity”. For the same compound, in data set [3], the water-solubility is not above 4 µg/mL. Besides, in data set [1], the antitumor activities entry is on record as “excellent antitumor activities”.

The record behind these values is patent US5677470A, “Baccatin derivatives and processes for preparing the same” (Tanabe Seiyaku Co., Ltd., priority 1994, dated 1997).
